{"source": "paper PMC12328707", "about": "“Potassium binding by carbonyl clusters, halophilic adaptation and catalysis of Haloferax mediterranei D-2-hydroxyacid dehydrogenase” (Communications Biology, 2025)", "target": "T1, D2HDH (Haloferax mediterranei, UniProt Q2VEQ7)", "T1 construct": "gene ddh; homodimer (~66 kDa; 79 kDa by gel filtration); residues 1-308; no tag mentioned", "T1 sequence (Q2VEQ7 whole entry, the tested form may be a part)": "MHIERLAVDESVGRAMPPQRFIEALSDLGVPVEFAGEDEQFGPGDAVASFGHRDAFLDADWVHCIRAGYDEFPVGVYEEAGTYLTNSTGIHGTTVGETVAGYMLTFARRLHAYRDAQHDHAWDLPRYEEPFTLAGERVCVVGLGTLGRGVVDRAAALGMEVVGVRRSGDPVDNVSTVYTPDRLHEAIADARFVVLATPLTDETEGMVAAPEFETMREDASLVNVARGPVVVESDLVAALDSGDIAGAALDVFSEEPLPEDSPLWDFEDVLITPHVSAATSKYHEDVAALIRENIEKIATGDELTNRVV", "assay": "X-ray crystal structure, […] Å", "format": "binding", "details": "formed by turnover in the crystallisation drop; NADP+ bound; modelled in subunit B as 2:1 mixture of 2-ketohexanoic acid and hydroxy acid", "data": [{"smiles": "CCCC[C@@H](O)C(=O)O", "note": "[D-2-hydroxyhexanoic acid]", "values": [{"measurement": "X-ray crystal structure, 1.57 Å", "value": "D-2-hydroxyhexanoic acid (beige carbons) bound to the active site of the D2HDH/NADP^+ complex"}]}]}
